Key:
[1] = system: PS2.M (DNA, G4) GTGGGTAGGGCGGGTTGG; assay: ligand fluorescence titration; conditions: 100 mM KCl; 10 mM Tris-HCl, pH 7.6; no CDHP
[2] = system: Malachite green (MG) aptamer (RNA, aptamer) GGAUCCCGACUGGCGAGAGCCAGGUAACGAAUGGAUCC; assay: fluorescence spectrum; conditions: 100 mM KCl, 5 mM MgCl2; 10 mM HEPES, pH 7.4; 1 μM CV; also in 2 M CDHP
[3] = system: Malachite green (MG) aptamer (RNA, aptamer) GGAUCCCGACUGGCGAGAGCCAGGUAACGAAUGGAUCC; assay: fluorescence light-up titration of MG; conditions: 100 mM KCl, 5 mM MgCl2; 10 mM Na-HEPES, pH 7.4; 100 nM aptamer; no CDHP
[4] = system: Scrambled MG aptamer (RNA, other) ACCGUUGCCGGACGAGACUGAUACGCGGAAGUCGCAAG; assay: fluorescence spectrum; conditions: 100 nM scrambled RNA
[5] = system: Cortisol aptamer (DNA, aptamer) CTCTTGGGACGACGCCCGCATGTTCCATGGATAGTCTTGACTAGTCGTCCC; assay: aptasensor strand-displacement fluorescence (FAM/BHQ1); conditions: aqueous buffer and 2 M CDHP; 3'-FAM signaling strand GTCGTCCCAAGAG hybridized; 1-10 ng/ml cortisol
[6] = system: ATP aptamer (DNA, aptamer) AATTCTGGGGGAGCCTTTTGTGGGTAGGGCGGGTTGGTTTTGCCCCGGAGGAGGAATT; assay: structure-switching FAM/BHQ1 fluorescence quenching; conditions: 300 mM NaCl, 5 mM MgCl2, 20 mM Tris-HCl, pH 7.4; for binding: 2 M CDHP, AD-13 hybridized, 1 mM nucleotide tested

With `CCc1c(C)c2cc3nc(cc4nc(cc5c(CC)c(C)c(cc1[nH]2)n5C)C(C)=C4CCC(=O)O)C(CCC(=O)O)=C3C` the Kd [1] was 520.6 nM.
`CN(C)c1ccc(C(=C2C=CC(=[N+](C)C)C=C2)c2ccc(N(C)C)cc2)cc1` was tested, and the binding [2] was “no”.
`CN(C)c1ccc(C(=C2C=CC(=[N+](C)C)C=C2)c2ccccc2)cc1` was tested, and the Kd [3] was 257.3 nM and the binding [4] was “no”.
In the case of `C[C@]12CCC(=O)C=C1CC[C@@H]1[C@@H]2[C@@H](O)C[C@@]2(C)[C@H]1CC[C@]2(O)C(=O)CO`, the binding [5] is reported as “yes”.
In the case of `Cc1ccc2c(c1)sc(-c1ccc(N(C)C)cc1)[n+]2C`, the Kd [1] is reported as 1444.7 nM.
With `Nc1ccn([C@@H]2O[C@H](COP(=O)(O)OP(=O)(O)OP(=O)(O)O)[C@@H](O)[C@H]2O)c(=O)n1` the binding [6] was “no”.
In the case of `Nc1nc2c(ncn2[C@@H]2O[C@H](COP(=O)(O)OP(=O)(O)OP(=O)(O)O)[C@@H](O)[C@H]2O)c(=O)[nH]1`, the binding [6] is reported as “no”.
`Nc1ncnc2c1ncn2[C@@H]1O[C@H](COP(=O)(O)OP(=O)(O)OP(=O)(O)O)[C@@H](O)[C@H]1O` showed an EC50 ([6]; antisense DNA AD-13 displaced, no CDHP) of 384000 nM.
For `O=c1ccn([C@@H]2O[C@H](COP(=O)(O)OP(=O)(O)OP(=O)(O)O)[C@@H](O)[C@H]2O)c(=O)[nH]1`, the binding [6] was “no”.
